Data on 4 compounds can be found in patent US11891360B2, “Glycosylated psilocybin derivatives and methods of using” (Enveric Biosciences Canada Inc., priority 2020, dated 2024).

In one test the target is 5-HT2A receptor (Homo sapiens, UniProt P28223). Description: Calcium mobilization (Fluo-8) assay in CHO-K1 cells stably expressing 5-HT2A (+5-HT2A). The format is cell-based. On the procedure: Briefly, vials with cells were removed from the liquid nitrogen and thawed quickly in 37° C. water bath.
Test [1] deals with CHO-K1/Galpha15 cells (−5-HT2A). Description: Calcium mobilization (Fluo-8) assay in control cells lacking 5-HT2A (−5-HT2A). The settings on record: CHO-K1/Galpha15 control cells lacking 5-HT2A. The format is cell-based, Chinese Hamster. An excerpt:
Cell lines for pharmacology assays. CHO-K1/Galpha15 (GenScript, M00257) (−5-HT2A) and CHO-K1/5-HT2A (GenScript, M00250) (+5-HT2A) cells lines were used in both toxicology/growth inhibition (MTT) and calcium release assays. Briefly, CHO-K1/Galpha15 is a control cell line that constitutively expresses Galpha15 which is a promiscuous Gq protein. It is engineered as a host cell, allowing transfected receptor(s) to signal through the Gq signal transduction pathway and mobilize intracellular calcium from the endoplasmic reticulum (ER). These control cells lack any transgene encoding 5-HT2A receptors, thus preventing calcium mobilization in response to 5-HT2A activation. Conversely, CHO-K1/5-HT2A cells stably express 5-HT2A receptor in the CHO-K1 host background. This design enables Gq-11 expressed in CHO-K1 cells to mobilize intracellular calcium changes when 5-HT2A receptors are activated by ligands.
Cell lines were maintained in Ham's F12 media plus 10% FBS in the presence of 100 ug/ml hygromycin for CHO-K1/Ga15 or 400 ug/ml G418 for CHO-K1/5-HT2A unless indicated otherwise for specific assays. Cell maintenance was carried out as recommended by the cell supplier. Briefly, vials with cells were removed from the liquid nitrogen and thawed quickly in 37° C. water bath. […]
Increase in cytosolic calcium concentration by 5-HT2A activation. Changes in intracellular calcium concentration due to the treatment with assay compounds was measured using Fluo-8 dye (Abcam, #ab112129) according to the manufacturer's instructions. […] Fluorescence (ex 490 nm/em 525 nm) obtained after the addition of molecules was expressed relative to values obtained before addition of the molecules (relative Fluo-8 fluorescence=Fmax/F0, where Fmax=maximum fluorescence and F0=baseline fluorescence). Fluorescence intensities were measured using a Spectramax ID3 plate reader (www.moleculardevices.com). Relative fluorescence (RFU) was plotted with respected to time (seconds) illustrating time-dependent calcium flux. […] The Example compound (Ill) was then evaluated.
(In general: Calcium flux is commonly read through the fluorescence of an indicator in the cells.)

5-HT2A receptor, sequence (P28223 whole entry): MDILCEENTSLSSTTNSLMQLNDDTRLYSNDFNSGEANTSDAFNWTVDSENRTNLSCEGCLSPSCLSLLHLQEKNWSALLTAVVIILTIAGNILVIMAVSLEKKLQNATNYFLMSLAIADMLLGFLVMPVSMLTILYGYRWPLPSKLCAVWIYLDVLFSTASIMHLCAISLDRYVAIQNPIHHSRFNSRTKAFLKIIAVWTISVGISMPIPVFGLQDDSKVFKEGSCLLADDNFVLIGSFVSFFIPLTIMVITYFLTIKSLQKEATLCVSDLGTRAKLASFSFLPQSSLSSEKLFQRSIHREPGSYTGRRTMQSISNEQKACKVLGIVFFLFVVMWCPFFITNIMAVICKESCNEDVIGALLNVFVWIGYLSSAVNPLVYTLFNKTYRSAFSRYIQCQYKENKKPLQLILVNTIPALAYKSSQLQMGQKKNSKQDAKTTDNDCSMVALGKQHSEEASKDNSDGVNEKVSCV

For `NCCc1c[nH]c2cccc(O[C@@H]3OC(CO)[C@@H](O)C(O)C3O)c12` (stereo partly drawn) [III, 4-O-β-D-glucopyranosyltryptamine], on 5-HT2A receptor (+5-HT2A cells, 0.001-100 μM), the “dose dependence of calcium flux response” value is “response increased with dosage”. Also, the “calcium flux response in −5-HT2A cells” value in test [1] is on record as “did not exhibit a response”.
As to `NCCc1c[nH]c2cccc(O[C@@H]3OC(CO)[C@H](O)C(O)C3O)c12` (stereo partly drawn) [V, 4-O-β-D-galactopyranosyltryptamine], the “dose dependence of calcium flux response” value at 5-HT2A receptor (+5-HT2A cells, 0.001-100 μM) is recorded as “response increased with dosage”. In addition, the “time to peak of intracellular calcium flux” value at 5-HT2A receptor (+5-HT2A cells, 0.001-100 μM, relative Fluo-8 fluorescence vs time) is given as “under 60 seconds”. In addition, the “calcium flux response in −5-HT2A cells” value in test [1] is given as “did not exhibit a response”.
For the compound `CN(C)CCc1c[nH]c2cccc(O[C@@H]3OC(CO)[C@H](O)C(O)C3O)c12` (stereo partly drawn) [VI, N,N-dimethyl-4-O-β-D-galactopyranosyltryptamine], the EC50 at 5-HT2A receptor (CHO-K1/5-HT2A (+5-HT2A) cells, four parameter logistic curve fitting, GraphPad Prism, read-out: EC50 of relative Fluo-8 fluorescence (calcium mobilization)) was determined as 3.81 µM.
As to `CN(C)CCc1c[nH]c2cccc(O)c12` [psilocin, reference compound], the “dose dependence of calcium flux response” value on 5-HT2A receptor (+5-HT2A cells, 0.001-100 μM) was “response increased with dosage”. For the same compound, the “calcium flux response in −5-HT2A cells” value in test [1] was “did not exhibit a response”.

As usually defined, the EC50 is the concentration giving half of the maximal effect.
